Reference: patent US20260234150A1, “COMPOUND FOR INHIBITING NLRP3, PREPARATION METHOD, AND USE” (DOVETREE MEDICINES UNUS, INC., priority 2023, published 2026)

How the values were obtained:
[1] = biological target: T1, His6-Flag-TEV-NLRP3 (134-1036) (Homo sapiens, UniProt Q96P20); test: NLRP3 fluorescence polarization (FP) binding assay, competition with probe NP3-301; conditions: competition with NP3-301 for binding to NLRP3 (134-1036), 30 nM protein
T1 construct: fused on or other part: N-terminal His6 tag, Flag tag and TEV cleavage site
T1 sequence (Q96P20 134-1036 limits assumed): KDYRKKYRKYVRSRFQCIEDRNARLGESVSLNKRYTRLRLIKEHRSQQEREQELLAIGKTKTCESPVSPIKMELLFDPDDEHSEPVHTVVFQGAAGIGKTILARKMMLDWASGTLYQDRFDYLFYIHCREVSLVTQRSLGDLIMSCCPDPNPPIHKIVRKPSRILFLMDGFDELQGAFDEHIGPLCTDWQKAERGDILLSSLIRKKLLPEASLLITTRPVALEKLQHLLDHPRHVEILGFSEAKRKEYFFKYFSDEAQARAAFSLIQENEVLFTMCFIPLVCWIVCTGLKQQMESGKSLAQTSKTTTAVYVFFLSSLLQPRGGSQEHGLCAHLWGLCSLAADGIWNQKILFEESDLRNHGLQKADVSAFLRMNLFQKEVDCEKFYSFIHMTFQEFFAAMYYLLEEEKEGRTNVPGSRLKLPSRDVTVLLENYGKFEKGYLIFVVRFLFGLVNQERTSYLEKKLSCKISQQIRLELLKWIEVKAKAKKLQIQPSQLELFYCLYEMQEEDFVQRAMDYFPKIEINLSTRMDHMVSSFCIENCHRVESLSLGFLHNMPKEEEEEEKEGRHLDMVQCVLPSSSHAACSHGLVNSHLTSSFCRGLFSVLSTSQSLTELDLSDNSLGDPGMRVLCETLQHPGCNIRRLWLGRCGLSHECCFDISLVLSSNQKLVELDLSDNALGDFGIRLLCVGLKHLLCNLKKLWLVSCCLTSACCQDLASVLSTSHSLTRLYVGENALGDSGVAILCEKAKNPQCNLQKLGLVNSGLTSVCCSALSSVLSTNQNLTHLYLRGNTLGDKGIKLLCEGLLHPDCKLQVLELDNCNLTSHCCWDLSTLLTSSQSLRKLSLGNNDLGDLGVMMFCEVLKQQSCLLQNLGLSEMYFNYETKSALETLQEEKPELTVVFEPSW
Procedure: This experiment uses fluorescence polarization technology to detect and evaluate the binding assay.
The fluorescent probe used in this assay is the compound NP3-301 in the Journal of Molecular Biology (2021) 433, 167309, which was synthesized with reference to this literature.
His6-Flag-TEV-NLRP3 (134-1036) protein (SEQ NO. 1) was purchased from Kaihuiruizhi Biotech (Shanghai) Co., Ltd. (ChemPartner), and was customed for expression.
Prepare 1× assay buffer: 50 mM Hepes, pH 7.4, 150 mM NaCl, 2.5 mM MgCl2, 0.005% Tween-20, 1 mM TCEP, 100 μM ATP.
First, 2.5 μL of 4× compound solution was added to a black shallow 384-well plate (Greiner, 784076), the shallow well plate was sealed, and centrifuged at 1000 rpm for 1 min; then 2× NLPR3 protein solution (final concentration of 30 nM) was added, the shallow well plate was sealed, centrifuged at 1000 rpm for 1 min, and incubated at room temperature for 60 min. Finally, 2.5 μL of 4× NP3-301 (final concentration of 0.5 nM) was added, the shallow well plate was sealed, centrifuged at 1000 rpm for 1 min, and incubated at room temperature for 30 min. Envision was used to read the fluorescence polarization values of λex=485+20 nm and kem=535+25 nm. GraphPad Prism 9.5.0 was used to analyze the data, and the IC50 value of the competition between the compound and NP3-301 for binding to His6-Flag-TEV-NLRP3 (134-1036) was fitted by four-parameter logistic. The compounds of the present disclosure have good NLRP3 binding activity, and the test results of some representative compounds are shown in Table 1.

[2] = system: IL-1β secretion of THP-1 cells; test: Effect of NLRP3 inhibitor on IL-1β secretion of THP-1 cells (AlphaLISA); type: cell-based; conditions: Homo sapiens; PMA, LPS and Nigericin stimulated THP-1 cells, IL-1β in supernatant; read-out: IC50 (nM), THP-1 cells to detect NLRP3 inhibitors
Procedure: This experiment used the PerkinElmer AlphaLISA_human_IL1β kit (AL220 C/F). The detection buffer was RPMI-1640+10FBS. AlphaLISA Immunoassay Buffer, AlphaLISA Anti-IL1β Acceptor beads, Streptavidin (SA)-coated Donor beads, and Biotinylated Antibody Anti-IL1β were all included in the kit.
The density of THP1 cells was adjusted to 4×10^5 cells/mL, PMA (final concentration 50 nM) was added, inoculated into 96-well flat-bottom plates at 200 μL/well, and stimulated overnight at 37° C., 5% CO2 (try to <16h). The next day, the supernatant was discarded, and the flat washed twice with DPBS ([…]/time). Then LPS solution (final concentration of 100 ng/ml) was added at 198 μL/well, incubated at 37° C., 5% CO2 for 3h. 1 μL of the corresponding concentration of compounds was added to each well according to the experimental MAP, incubated at 37° C., 5% CO2 for 1 h. 1 μL Nigericin (final concentration of […]) was added to each well, incubated overnight at 5% CO2 (>18h). On the third day, 5 μL of supernatant was taken, diluted 20 times, and the content of IL-Iβ in the supernatant was detected by Human Interleukin 1 beta (IL1β) Kit. Envision was used to read the AlphaLISA test value of Ex=680/[…]. GraphPad Prism 9.5.0 was used to analyze the data, and the IC50 value of the compound for IL-Iβ antagonism was fitted by four-parameter Logistic.

IC50 [1]	IC50 [2]	Compound
≤ 100 nM	100 to 500 nM	CCN1CCCC(c2nc3nc(-c4c(C)cc(C(F)(F)F)cc4O)ccc3[nH]2)C1 (stereo not drawn) [Compound 10]
≤ 100 nM	< 50 nM	CCN1CCC[C@@H](n2ccc3cc(-c4c(C)cc(C(F)(F)F)cc4O)nnc32)C1 [Compound 11-a]
≤ 100 nM	50 to 100 nM	Cc1cc(C(F)(F)F)cc(O)c1-c1ccc2oc(N)nc2n1 [Compound 14]
≤ 100 nM	100 to 500 nM	CCC(=O)N1CCOC[C@H]1CNc1nc2nc(-c3c(C)cc(C(F)(F)F)cc3O)ccc2o1 [Compound 250]
≤ 100 nM	< 50 nM	Cc1cc(C(F)(F)F)cc(O)c1-c1ccc2oc(NC[C@@H]3COCCN3C(=O)C3CC3)nc2n1 [Compound 257]
≤ 100 nM	< 50 nM	Oc1cc(Cl)cc(O)c1-c1ccc2oc(N3CCOCC3)nc2n1 [Compound 376]
≤ 100 nM	50 to 100 nM	Cc1cc(Cl)cc(O)c1-c1ccc2oc(N3CCS(=O)(=O)CC3)nc2n1 [Compound 387]
≤ 100 nM	50 to 100 nM	CCS(=O)(=O)N1CCN(c2nc3nc(-c4c(C)cc(C(F)(F)F)cc4O)ccc3o2)CC1 [Compound 388]
≤ 100 nM	< 50 nM	Cc1cc(C(F)(F)F)cc(O)c1-c1ccc2oc(N3CCN(S(C)(=O)=O)CC3)nc2n1 [Compound 390]
≤ 100 nM	< 50 nM	Cc1cc(C(F)(F)F)cc(O)c1-c1ccc2oc(N[C@@H]3CCCN(C(C)C)C3)nc2n1 [Compound 400]
≤ 100 nM	< 50 nM	Cc1cc(C(F)(F)F)cc(O)c1-c1ccc2oc(N[C@@H]3CCCN(CCO)C3)nc2n1 [Compound 404]
≤ 100 nM	100 to 500 nM	Cc1cc(C(F)(F)F)cc(O)c1-c1ccc2nc(N3CCOCC3)nn2n1 [Compound 423]
≤ 100 nM	< 50 nM	Cc1cc(C(F)(F)F)cc(O)c1-c1ccn2nc(N3CCOCC3)nc2n1 [Compound 426]
≤ 100 nM	< 50 nM	CCN1CCC[C@@H](Nc2nc3ccc(-c4c(C)cc(C(F)(F)F)cc4O)nn3n2)C1 [Compound 439]
≤ 100 nM	< 50 nM	CC(=O)NC[C@@H]1COCCN1c1nc2nc(-c3c(C)cc(C(F)(F)F)cc3O)cc(C)n2n1 [Compound 441]
≤ 100 nM	< 50 nM	Cc1cc(C(F)(F)F)cc(O)c1-c1cc(C)n2nc(N[C@@H]3CCCN(C)C3)nc2n1 [Compound 443]
≤ 100 nM	< 50 nM	Cc1cc(C(F)(F)F)cc(O)c1-c1ccn2nc(N[C@@H]3CCCN(C)C3)nc2n1 [Compound 444]
≤ 100 nM	< 50 nM	CCN1CCC[C@@H](Nc2nc3nc(-c4c(C)cc(C(F)(F)F)cc4O)ccn3n2)C1 [Compound 448]
≤ 100 nM		Cc1cc(C(F)(F)F)cc(O)c1-c1ccn2nc(N[C@@H]3CCCN(CCO)C3)nc2n1 [Compound 455]
> 1000 nM		Cc1cc(C(F)(F)F)c(Cl)c(O)c1-c1ccn2nc(N3CCOCC3)nc2n1 [Compound 459]
100 to 500 nM		CC(=O)N1CCC[C@@H](Nc2nc3nc(-c4c(C)cc(C(F)(F)F)cc4O)ncc3[nH]2)C1 [Compound 461]

More lines, now with the values behind:

Compound	IC50 [1]	IC50 [2]
Cc1cc(C(F)(F)F)cc(O)c1-c1ccc2[nH]c(CC(N)=O)nc2n1 [Compound 5]	≤ 100 nM	100 to 500 nM
Cc1cc(C(F)(F)F)cc(O)c1-c1ccc2[nH]c(NCC(C)(C)O)nc2n1 [Compound 6]		100 to 500 nM
Cc1cc(C(F)(F)F)cc(O)c1-c1ccc2[nH]c(C3CCCNC3)nc2n1 (stereo not drawn) [Compound 9]	≤ 100 nM	50 to 100 nM
CCN1CCCC(n2ccc3cc(-c4c(C)cc(C(F)(F)F)cc4O)nnc32)C1 (stereo not drawn) [Compound 11]	≤ 100 nM	< 50 nM
CCN1CCC[C@@H](N2CC(=O)Nc3cc(-c4c(C)cc(C(F)(F)F)cc4O)nnc32)C1 [Compound 12-a]	≤ 100 nM	< 50 nM
CCN1CCCC(N2CC(=O)Nc3cc(-c4c(C)cc(C(F)(F)F)cc4O)nnc32)C1 (stereo not drawn) [Compound 12]	≤ 100 nM	100 to 500 nM
Cc1cc(C(F)(F)F)cc(O)c1-c1ccc2oc(NC[C@@H]3COCCN3C(=O)C(F)(F)F)nc2n1 [Compound 247]	≤ 100 nM	50 to 100 nM
Cc1cc(C(F)(F)F)cc(O)c1-c1ccc2oc(NC[C@@H]3COCCN3C(=O)C(C)C)nc2n1 [Compound 248]	≤ 100 nM	100 to 500 nM
Cc1cc(C(F)(F)F)cc(O)c1-c1ccc2oc(NC[C@@H]3COCCN3C(=O)C(F)F)nc2n1 [Compound 249]	≤ 100 nM	100 to 500 nM
CC(=O)N1CCOC[C@H]1CNc1nc2nc(-c3c(C)cc(Cl)cc3O)ccc2o1 [Compound 253]	≤ 100 nM	< 50 nM
Cc1cc(C(F)(F)F)cc(O)c1-c1ccc2oc(NC[C@@H]3COCCN3S(=O)(=O)C3CC3)nc2n1 [Compound 260]	≤ 100 nM	< 50 nM
Cc1cc(C(F)(F)F)cc(O)c1-c1ccc2oc(N3CCOC[C@H]3C)nc2n1 [Compound 371]	≤ 100 nM	50 to 100 nM
Cc1cc(C(F)(F)F)cc(O)c1-c1ccc2oc(N3CC4CCC(C3)O4)nc2n1 [Compound 381]	≤ 100 nM	100 to 500 nM
Cc1cc(C(F)(F)F)cc(O)c1-c1ccc2oc(N3CCN(S(=O)(=O)C4CC4)CC3)nc2n1 [Compound 392]	≤ 100 nM	< 50 nM
CCS(=O)(=O)N1CCN(c2nc3nc(-c4c(C)cc(C(F)(F)F)cc4O)ccc3o2)C[C@@H]1C [Compound 394]	≤ 100 nM	50 to 100 nM
CCN1C[C@H](F)C[C@@H](Nc2nc3nc(-c4c(C)cc(C(F)(F)F)cc4O)ccc3o2)C1 [Compound 397]	≤ 100 nM	100 to 500 nM
Cc1cc(C(F)(F)F)cc(O)c1-c1ccc2oc(N[C@@H]3CCCN(C4CC4)C3)nc2n1 [Compound 399]	≤ 100 nM	< 50 nM
Cc1cc(C(F)(F)F)cc(O)c1-c1ccc2oc(NC[C@@H](C)O)nc2n1 [Compound 413]	≤ 100 nM	50 to 100 nM
Cc1cc(C(F)(F)F)cc(O)c1-c1ccc2nc(N3CCS(=O)(=O)CC3)nn2n1 [Compound 422]	≤ 100 nM	100 to 500 nM
Cc1cc(C(F)(F)F)cc(O)c1-c1cc(C)c2nc(N3CCOCC3)nn2n1 [Compound 424]	≤ 100 nM	< 50 nM
Cc1cc(C(F)(F)F)cc(O)c1-c1cc(C)n2nc(N3CCOCC3)nc2n1 [Compound 440]	≤ 100 nM	50 to 100 nM
CC(=O)NC[C@@H]1COCCN1c1nc2c(C)cc(-c3c(C)cc(C(F)(F)F)cc3O)nn2n1 [Compound 442]	≤ 100 nM	< 50 nM
Cc1cc(C(F)(F)F)cc(O)c1-c1ccc2nc(N[C@@H]3CCCN(C)C3)nn2n1 [Compound 445]	≤ 100 nM	< 50 nM
Cc1cc(C(F)(F)F)cc(O)c1-c1cc(C)c2nc(N[C@@H]3CCCN(C)C3)nn2n1 [Compound 446]	≤ 100 nM	< 50 nM
CCN1CCC[C@@H](Nc2nc3c(C)cc(-c4c(C)cc(C(F)(F)F)cc4O)nn3n2)C1 [Compound 447]	≤ 100 nM	< 50 nM
CC(=O)N1CCOC[C@H]1CNc1nc2nc(-c3c(C)cc(C(F)(F)F)cc3O)cc(C)c2o1 [Compound 451]	≤ 100 nM	50 to 100 nM
Cc1cc(C(F)(F)F)cc(O)c1-c1cc(C)c2nc(N[C@@H]3CCCN(CCO)C3)nn2n1 [Compound 456]	≤ 100 nM	< 50 nM
CC(=O)N1CCOC[C@H]1CNc1nc2nc(-c3c(C)cc(C(F)(F)F)cc3O)cc(C)n2n1 [Compound 457]	100 to 500 nM	
Cc1cc(-c2ccc(C(F)(F)F)cc2O)nc2nc(N3CCOCC3)nn12 [Compound 458]	≤ 100 nM	
Cc1cc(C(F)(F)F)cc(O)c1-c1cc(C)n2nc(N[C@H]3CCCN(CCO)C3)nc2n1 [Compound 460]	≤ 100 nM	< 50 nM
